According to PMC6271638, “Synthesis of New 1,2,3-Triazol-4-yl-quinazoline Nucleoside and Acyclonucleoside Analogues” (Molecules, 2014):
Read-outs that look alike come from different tables or passages of the source.

How the values were obtained:
[1] = tested on: HCV replicon (genotype 1b, CON1); experiment: Anti-HCV activity, 3-day cell culture assay in HCV-replicon-containing cell line AVA5; format: cell-based, hepatitis C virus; details: AVA5 cells (genotype 1b, CON1), 3-day assay, read-out: IC50, concentration of compound achieving 50% inhibition of the replicon system
Protocol: Antiviral activity was assessed in a 3-day cell culture assay using the HCV-replicon-containing cell line, AVA5 (genotype 1b, CON1) (provided to GUMC by Apath, Inc., Brooklyn, NY, USA) as previously described.

Huh 5.2 cells = experiment: Cytotoxicity (50% extinction of cells) in the anti-HCV replicon assay; format: cell-based; details: 3-day cell culture assay, read-out: CC50, concentration of compound required for 50% extinction of Huh 5.2 cells
[2] = as above; format: cell-based; details: human; Huh 5.2 cells; 3-day cell culture assay; read-out: CC50, concentration of compound required for 50% extinction of Huh 5.2 cells

3-((1-(β-D-Ribofuranos-1-yl)-1,2,3-triazol-4-yl)methyl)-2-methylquinazolin-4-one [Compound 7d]
IC50 [1]: > 10 µM
CC50 (Huh 5.2 cells): ≥ 100 µM

3-((1-(β-D-Ribofuranos-1-yl)-1,2,3-triazol-4-yl)methyl)quinazolin-4-one [Compound 7g]
IC50 [1]: > 10 µM
CC50 (Huh 5.2 cells): ≥ 100 µM

4-((1-(β-D-Ribofuranos-1-yl)-1,2,3-triazol-4-yl)methoxy)-2-phenylquinazoline [Compound 7a]
IC50 [1]: > 10 µM
CC50 (Huh 5.2 cells): ≥ 50 µM

C[C@@]1(O)[C@H](O)[C@@H](CO)O[C@H]1n1ccc(N)nc1=O [Compound 2CmeCyt, reference compound]
IC50 [1]: 1.5 µM
CC50 (Huh 5.2 cells): > 300 µM

OCCOCn1cc(COc2nc(-c3ccccc3)nc3ccccc23)nn1 [Compound 7b, 2-((4-((2-Phenylquinazolin-4-yloxy)methyl)-1,2,3-triazol-1-yl)methoxy)etanol]
IC50 ([1]; Hepatitis C virus, 72 h): > 10 µM
CC50 at 3 day [2]: ≥ 100 µM

OCCCCn1cc(COc2nc(-c3ccccc3)nc3ccccc23)nn1 [Compound 7c, 4-(4-((2-Phenylquinazolin-4-yloxy)methyl)-1,2,3-triazol-1-yl)butan-1-ol]
IC50 ([1]; Hepatitis C virus, 72 h): > 10 µM
CC50 at 3 day [2]: ≥ 50 µM

Cc1nc2ccccc2c(=O)n1Cc1cn(COCCO)nn1 [Compound 7e, 2-((4-((2-Methyl-4-oxoquinazolin-3-yl)methyl)-1,2,3-triazol-1-yl)methoxy)ethanol]
IC50 ([1]; Hepatitis C virus, 72 h): > 10 µM
CC50 at 3 day [2]: ≥ 50 µM

Cc1nc2ccccc2c(=O)n1Cc1cn(CCCCO)nn1 [Compound 7f, 4-(4-((2-Methyl-4-oxoquinazolin-3-yl)methyl)-1,2,3-triazol-1-yl)butan-1-ol]
IC50 ([1]; Hepatitis C virus, 72 h): > 10 µM
CC50 at 3 day [2]: ≥ 50 µM

O=c1c2ccccc2ncn1Cc1cn(COCCO)nn1 [Compound 7h, 2-((4-((4-Oxoquinazolin-3-yl)methyl)-1,2,3-triazol-1-yl)methoxy)ethanol]
IC50 ([1]; Hepatitis C virus, 72 h): > 10 µM
CC50 at 3 day [2]: ≥ 50 µM

O=c1c2ccccc2ncn1Cc1cn(CCCCO)nn1 [Compound 7i, 4-(4-((4-Oxoquinazolin-3-yl)methyl)-1H-1,2,3-triazol-1-yl)butan-1-ol]
IC50 ([1]; Hepatitis C virus, 72 h): > 10 µM
CC50 at 3 day [2]: ≥ 50 µM
